Laboratory results taken from US10813354B2, “Herbicidal pyridazinone compounds” (SYNGENTA PARTICIPATIONS AG, priority 2016, dated 2020).

Legend:
Type in all cases: in vivo
Details in all cases: sprayed after 10 days cultivation, evaluated after 14 days
[1] = system: HORVW (Hordeum vulgare—barley); assay: Post-emergence glasshouse herbicide test, crop damage on barley
Protocol: (§1) Seeds of a variety of test species HORVW (Hordeum vulgare—barley), ABUTH (Abutilon theophrasti), AMARE (Amaranthus retroflexus) and ECHCG (Echinochloa crus-galli) were sown in standard soil in pots. After cultivation for 10 days cultivation under controlled conditions in a glasshouse (at 24/16° C., day/night; 14 hours light; 65% humidity), the plants were sprayed with an aqueous spray solution derived from the formulation of the technical active ingredient in 0.6 ml acetone and 45 ml formulation solution containing 10.6% Emulsogen EL (Registry number 61791-12-6), 42.2% N-methyl pyrrolidone, 42.2% dipropylene glycol monomethyl ether (CAS RN 34590-94-8) and 0.2% X-77 (CAS RN 11097-66-8).
(§2) The test plants were then grown in a glasshouse under controlled conditions in a glasshouse (at 24/16° C., day/night; 14 hours light; 65% humidity) and watered twice daily. After 14 days, the test was evaluated (100=total damage to plant; 0=no damage to plant).

[2] = system: ECHCG (Echinochloa crus-galli); assay: Post-emergence glasshouse herbicide test on ECHCG
Protocol: as §1, §2

[3] = system: ABUTH (Abutilon theophrasti); assay: Post-emergence glasshouse herbicide test on ABUTH
Protocol: as §1, §2

[4] = system: AMARE (Amaranthus retroflexus); assay: Post-emergence glasshouse herbicide test on AMARE
Protocol: as §1, §2

Row | SMILES | HORVW damage to plant (100=total damage to plant; 0=no damage to plant) ([1]; Rate 125 g/ha) | HORVW damage to plant (100=total damage to plant; 0=no damage to plant) ([1]; Rate 250 g/ha) | ECHCG damage to plant (100=total damage to plant; 0=no damage to plant) ([2]; Rate 125 g/ha) | ECHCG damage to plant (100=total damage to plant; 0=no damage to plant) ([2]; Rate 250 g/ha) | ABUTH damage to plant (100=total damage to plant; 0=no damage to plant) ([3]; Rate 125 g/ha) | ABUTH damage to plant (100=total damage to plant; 0=no damage to plant) ([3]; Rate 250 g/ha) | AMARE damage to plant (100=total damage to plant; 0=no damage to plant) ([4]; Rate 125 g/ha) | AMARE damage to plant (100=total damage to plant; 0=no damage to plant) ([4]; Rate 250 g/ha)
1 | COc1ccc(-n2nc(C)cc(C(=O)C3C(=O)C4CCC(C4)C3=O)c2=O)cc1OC (centres unmarked) [Compound 1.1, 3-[2-(3,4-dimethoxyphenyl)-6-methyl-3-oxo-pyridazine-4-carbonyl]bicyclo[3.2.1]octane-2,4-dione] | 0 | 0 | 100 | 100 | 100 | 100 | 100 | 100
2 | COc1ccc(-n2nc(C)cc(C(=O)C3C(=O)CC(C)CC3=O)c2=O)cc1OC (centres unmarked) [Compound 1.2] | 0 | 0 | 100 | 100 | 100 | 100 | 100 | 100
3 | COc1ccc(-n2nc(C)cc(C(=O)C3C(=O)CCCC3=O)c2=O)cc1OC [Compound 1.3, 2-[2-(3,4-Dimethoxyphenyl)-6-methyl-3-oxo-pyridazine-4-carbonyl]cyclohexane-1,3-dione] | 0 | 0 | 100 | 100 | 100 | 100 | 100 | 100
4 | COc1ccc(-n2nc(C)cc(C(=O)C3C(=O)CC(C)(C)CC3=O)c2=O)cc1OC [Compound 1.4] | 0 | 10 | 100 | 100 | 100 | 100 | 100 | 100
5 | COc1ccc(-n2nc(C)cc(C(=O)C3C(=O)C(C)(C)C(=O)C(C)(C)C3=O)c2=O)cc1OC [Compound 1.5] | 0 | 0 | 90 | 90 | 100 | 100 | 100 | 100
6 | COc1ccc(-n2nc(C3CC3)cc(C(=O)C3C(=O)C4CCC(C4)C3=O)c2=O)cc1OC (centres unmarked) [Compound 1.9] | 0 | 10 | 100 | 100 | 100 | 100 | 90 | 100
7 | COc1ccc(-n2nc(C3CC3)cc(C(=O)C3C(=O)C(C)(C)C(=O)C(C)(C)C3=O)c2=O)cc1OC [Compound 1.11, 6-[6-cyclopropyl-2-(3,4-dimethoxyphenyl)-3-oxo-pyridazine-4-carbonyl]-2,2,4,4-tetramethyl-cyclohexane-1,3,5-trione] | 0 | 0 | 100 | 100 | 100 | 100 | 100 | 100
